Test results reported in the kinase profiling compilation of Christmann-Franck et al. (2016).

Tests used:
Experiment in all cases: KINOMEscan competition binding
Details in all cases: compound 10.0 µM
ACVR2B (human) = ACVR2B (human) (UniProt Q13705)
CAMKK2 (human) = CAMKK2 (human) (UniProt Q96RR4)
BTK (human) = BTK (human) (UniProt Q06187)
IGF1R (human) = IGF1R (human) (UniProt P08069)
CDKL3 (human) = CDKL3 (human) (UniProt Q8IVW4)
ITK (human) = ITK (human) (UniProt Q08881)
PIP5K1C (human) = PIP5K1C (human) (UniProt O60331)
PRKAA1 (human) = PRKAA1 (human) (UniProt Q13131)
RPS6KA3 KD1 (human) = RPS6KA3 KD1 (human) (UniProt P51812)
TBK1 (human) = TBK1 (human) (UniProt Q9UHD2)
EIF2AK2 (human) = EIF2AK2 (human) (UniProt P19525)
TGFBR2 (human) = TGFBR2 (human) (UniProt P37173)
PRPF4B (human) = PRPF4B (human) (UniProt Q13523)
TESK1 (human) = TESK1 (human) (UniProt Q15569)
MYLK (human) = MYLK (human) (UniProt Q15746)
IRAK3 (human) = IRAK3 (human) (UniProt Q9Y616)
PIM2 (human) = PIM2 (human) (UniProt Q9P1W9)
DMPK (human) = DMPK (human) (UniProt Q09013)
[1] = test system: KIT (human), P10721 [L576P]
WEE1 (human) = WEE1 (human) (UniProt P30291)
MATK (human) = MATK (human) (UniProt P42679)
NTRK2 (human) = NTRK2 (human) (UniProt Q16620)
PDGFRA (human) = PDGFRA (human) (UniProt P16234)
HIPK3 (human) = HIPK3 (human) (UniProt Q9H422)
AKT2 (human) = AKT2 (human) (UniProt P31751)
AKT3 (human) = AKT3 (human) (UniProt Q9Y243)
ZAP70 (human) = ZAP70 (human) (UniProt P43403)
CDK14 (human) = CDK14 (human) (UniProt O94921)
SGK3 (human) = SGK3 (human) (UniProt Q96BR1)
ERBB3 (human) = ERBB3 (human) (UniProt P21860)
PI4KB (human) = PI4KB (human) (UniProt Q9UBF8)
[2] = biological target: TYK2 JH2 pseudokinase (human) (UniProt P29597)
CSK (human) = CSK (human) (UniProt P41240)
MAPK10 (human) = MAPK10 (human) (UniProt P53779)
TXK (human) = TXK (human) (UniProt P42681)
PRKCH (human) = PRKCH (human) (UniProt P24723)
CSNK1D (human) = CSNK1D (human) (UniProt P48730)
RPS6KA1 KD2 (human) = RPS6KA1 KD2 (human) (UniProt Q15418)
ULK2 (human) = ULK2 (human) (UniProt Q8IYT8)
FLT3 (human) = FLT3 (human) (UniProt P36888)

Sequence of EIF2AK2 (human) (P19525 whole entry, looked up): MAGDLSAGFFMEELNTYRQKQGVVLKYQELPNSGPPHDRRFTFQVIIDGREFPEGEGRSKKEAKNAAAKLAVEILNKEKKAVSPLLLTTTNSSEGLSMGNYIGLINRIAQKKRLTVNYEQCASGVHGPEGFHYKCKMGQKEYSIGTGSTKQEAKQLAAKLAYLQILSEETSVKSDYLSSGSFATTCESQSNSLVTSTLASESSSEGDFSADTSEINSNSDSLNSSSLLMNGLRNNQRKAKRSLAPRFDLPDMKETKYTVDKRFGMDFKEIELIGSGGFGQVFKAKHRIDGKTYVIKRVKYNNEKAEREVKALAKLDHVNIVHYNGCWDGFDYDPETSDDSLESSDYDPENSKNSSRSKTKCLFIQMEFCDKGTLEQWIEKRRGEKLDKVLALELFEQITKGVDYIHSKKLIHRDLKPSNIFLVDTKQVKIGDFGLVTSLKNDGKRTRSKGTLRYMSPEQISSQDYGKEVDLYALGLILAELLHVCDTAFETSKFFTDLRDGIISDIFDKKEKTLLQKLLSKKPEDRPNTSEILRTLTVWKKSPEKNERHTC
Sequence of PRKCH (human) (P24723 whole entry, looked up): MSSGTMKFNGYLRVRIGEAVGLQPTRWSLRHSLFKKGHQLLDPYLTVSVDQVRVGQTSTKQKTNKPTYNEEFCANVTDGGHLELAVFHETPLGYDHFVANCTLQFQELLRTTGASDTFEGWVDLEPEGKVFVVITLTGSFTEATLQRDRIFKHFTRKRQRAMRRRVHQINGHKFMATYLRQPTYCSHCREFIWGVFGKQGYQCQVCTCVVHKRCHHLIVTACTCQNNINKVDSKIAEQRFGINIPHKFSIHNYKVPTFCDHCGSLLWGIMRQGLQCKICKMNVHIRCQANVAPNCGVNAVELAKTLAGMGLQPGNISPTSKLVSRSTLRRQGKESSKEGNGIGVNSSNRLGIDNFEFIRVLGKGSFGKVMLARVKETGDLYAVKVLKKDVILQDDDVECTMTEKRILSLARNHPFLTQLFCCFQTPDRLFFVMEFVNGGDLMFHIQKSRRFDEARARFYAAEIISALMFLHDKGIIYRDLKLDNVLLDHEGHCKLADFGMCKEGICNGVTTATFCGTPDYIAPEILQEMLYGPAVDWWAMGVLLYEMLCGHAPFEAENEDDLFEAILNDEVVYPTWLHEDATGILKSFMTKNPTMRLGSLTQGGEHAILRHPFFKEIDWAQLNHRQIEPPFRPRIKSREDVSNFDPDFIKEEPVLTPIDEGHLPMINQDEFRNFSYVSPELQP
Sequence of TXK (human) (P42681 whole entry, looked up): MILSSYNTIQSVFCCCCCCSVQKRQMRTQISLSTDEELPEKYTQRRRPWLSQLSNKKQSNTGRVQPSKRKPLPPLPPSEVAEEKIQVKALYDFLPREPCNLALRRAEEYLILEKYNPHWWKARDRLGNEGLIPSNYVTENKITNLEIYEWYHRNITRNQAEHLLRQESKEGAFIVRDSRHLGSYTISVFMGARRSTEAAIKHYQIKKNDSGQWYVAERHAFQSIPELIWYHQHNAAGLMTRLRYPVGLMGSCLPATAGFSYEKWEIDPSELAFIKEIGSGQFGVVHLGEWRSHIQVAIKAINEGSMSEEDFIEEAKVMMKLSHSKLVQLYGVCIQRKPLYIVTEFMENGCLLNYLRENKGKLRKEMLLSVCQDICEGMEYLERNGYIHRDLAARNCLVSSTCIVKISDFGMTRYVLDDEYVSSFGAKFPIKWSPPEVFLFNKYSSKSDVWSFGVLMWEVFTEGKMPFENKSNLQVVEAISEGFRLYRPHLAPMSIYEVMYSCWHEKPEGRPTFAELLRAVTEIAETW
Sequence of BTK (human) (Q06187 whole entry, looked up): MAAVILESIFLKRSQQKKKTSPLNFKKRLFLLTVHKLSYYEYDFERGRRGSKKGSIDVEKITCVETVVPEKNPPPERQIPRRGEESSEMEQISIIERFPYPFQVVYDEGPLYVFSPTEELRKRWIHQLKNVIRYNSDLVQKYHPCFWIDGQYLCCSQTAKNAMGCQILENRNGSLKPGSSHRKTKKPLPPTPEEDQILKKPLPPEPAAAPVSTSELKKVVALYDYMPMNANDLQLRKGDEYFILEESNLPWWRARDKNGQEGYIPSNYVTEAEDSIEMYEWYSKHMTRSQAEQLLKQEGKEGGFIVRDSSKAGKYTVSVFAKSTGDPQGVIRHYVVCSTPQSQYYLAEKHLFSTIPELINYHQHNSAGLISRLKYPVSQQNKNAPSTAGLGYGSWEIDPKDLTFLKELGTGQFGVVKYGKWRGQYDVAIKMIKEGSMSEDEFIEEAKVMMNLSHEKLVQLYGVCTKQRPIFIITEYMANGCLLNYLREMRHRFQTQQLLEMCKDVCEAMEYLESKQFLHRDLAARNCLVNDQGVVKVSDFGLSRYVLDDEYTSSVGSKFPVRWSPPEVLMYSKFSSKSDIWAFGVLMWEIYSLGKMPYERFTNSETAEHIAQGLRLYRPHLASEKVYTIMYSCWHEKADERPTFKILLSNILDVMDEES
Sequence of KIT (human), P10721 [L576P] (P10721 whole entry L576P, looked up): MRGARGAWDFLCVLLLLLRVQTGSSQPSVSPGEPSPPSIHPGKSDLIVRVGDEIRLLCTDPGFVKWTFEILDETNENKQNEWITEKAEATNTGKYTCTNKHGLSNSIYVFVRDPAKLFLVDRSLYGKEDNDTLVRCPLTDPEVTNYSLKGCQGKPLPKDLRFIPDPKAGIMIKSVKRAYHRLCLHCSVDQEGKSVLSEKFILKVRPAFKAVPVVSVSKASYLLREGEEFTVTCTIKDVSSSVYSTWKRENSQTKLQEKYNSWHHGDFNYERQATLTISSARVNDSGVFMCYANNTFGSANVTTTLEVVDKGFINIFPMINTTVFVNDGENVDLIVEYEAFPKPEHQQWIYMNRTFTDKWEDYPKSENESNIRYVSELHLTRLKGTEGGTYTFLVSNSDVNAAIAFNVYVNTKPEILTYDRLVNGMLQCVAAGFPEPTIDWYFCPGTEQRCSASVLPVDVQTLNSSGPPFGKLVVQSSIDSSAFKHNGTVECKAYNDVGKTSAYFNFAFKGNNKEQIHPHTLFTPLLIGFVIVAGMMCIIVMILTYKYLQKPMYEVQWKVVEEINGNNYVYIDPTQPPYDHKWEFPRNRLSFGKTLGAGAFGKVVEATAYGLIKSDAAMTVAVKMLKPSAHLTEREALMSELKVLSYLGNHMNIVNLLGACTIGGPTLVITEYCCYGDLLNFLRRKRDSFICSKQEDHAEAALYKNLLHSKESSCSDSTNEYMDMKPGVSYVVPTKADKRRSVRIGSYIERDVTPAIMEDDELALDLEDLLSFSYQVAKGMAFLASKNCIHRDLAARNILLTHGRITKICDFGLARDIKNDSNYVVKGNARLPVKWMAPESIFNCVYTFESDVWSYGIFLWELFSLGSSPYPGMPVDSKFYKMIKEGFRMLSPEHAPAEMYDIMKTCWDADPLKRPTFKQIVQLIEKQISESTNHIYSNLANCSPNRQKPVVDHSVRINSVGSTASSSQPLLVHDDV
Sequence of TESK1 (human) (Q15569 whole entry, looked up): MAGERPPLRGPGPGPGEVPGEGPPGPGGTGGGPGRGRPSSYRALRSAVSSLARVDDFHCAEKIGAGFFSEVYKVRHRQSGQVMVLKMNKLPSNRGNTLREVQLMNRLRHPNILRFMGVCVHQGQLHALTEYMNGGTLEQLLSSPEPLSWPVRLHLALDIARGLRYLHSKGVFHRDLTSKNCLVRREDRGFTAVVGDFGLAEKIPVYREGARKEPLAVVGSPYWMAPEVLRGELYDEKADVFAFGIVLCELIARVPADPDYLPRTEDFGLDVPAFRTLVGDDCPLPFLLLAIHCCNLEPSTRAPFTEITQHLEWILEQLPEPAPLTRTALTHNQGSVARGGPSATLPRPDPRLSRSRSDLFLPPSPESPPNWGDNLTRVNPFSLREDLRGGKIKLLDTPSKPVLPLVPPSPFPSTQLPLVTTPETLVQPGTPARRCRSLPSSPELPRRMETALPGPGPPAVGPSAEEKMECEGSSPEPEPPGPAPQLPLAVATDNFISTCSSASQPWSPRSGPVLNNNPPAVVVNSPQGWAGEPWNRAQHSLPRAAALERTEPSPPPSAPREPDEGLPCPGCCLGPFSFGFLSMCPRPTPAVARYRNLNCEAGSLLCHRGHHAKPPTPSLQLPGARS
Sequence of ACVR2B (human) (Q13705 whole entry, looked up): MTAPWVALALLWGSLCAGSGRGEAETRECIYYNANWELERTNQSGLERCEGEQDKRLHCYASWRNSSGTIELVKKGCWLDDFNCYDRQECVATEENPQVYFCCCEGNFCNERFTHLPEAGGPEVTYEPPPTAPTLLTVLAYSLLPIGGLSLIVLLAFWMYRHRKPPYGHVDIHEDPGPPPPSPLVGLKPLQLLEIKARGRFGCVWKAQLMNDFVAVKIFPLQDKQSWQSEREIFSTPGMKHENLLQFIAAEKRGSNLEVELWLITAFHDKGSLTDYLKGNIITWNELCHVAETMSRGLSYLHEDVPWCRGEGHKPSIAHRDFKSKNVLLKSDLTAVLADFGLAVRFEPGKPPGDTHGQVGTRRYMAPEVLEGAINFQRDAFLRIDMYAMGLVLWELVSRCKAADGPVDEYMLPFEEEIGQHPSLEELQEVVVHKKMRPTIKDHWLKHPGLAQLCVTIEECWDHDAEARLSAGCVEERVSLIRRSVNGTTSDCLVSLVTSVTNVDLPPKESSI
Sequence of AKT2 (human) (P31751 whole entry, looked up): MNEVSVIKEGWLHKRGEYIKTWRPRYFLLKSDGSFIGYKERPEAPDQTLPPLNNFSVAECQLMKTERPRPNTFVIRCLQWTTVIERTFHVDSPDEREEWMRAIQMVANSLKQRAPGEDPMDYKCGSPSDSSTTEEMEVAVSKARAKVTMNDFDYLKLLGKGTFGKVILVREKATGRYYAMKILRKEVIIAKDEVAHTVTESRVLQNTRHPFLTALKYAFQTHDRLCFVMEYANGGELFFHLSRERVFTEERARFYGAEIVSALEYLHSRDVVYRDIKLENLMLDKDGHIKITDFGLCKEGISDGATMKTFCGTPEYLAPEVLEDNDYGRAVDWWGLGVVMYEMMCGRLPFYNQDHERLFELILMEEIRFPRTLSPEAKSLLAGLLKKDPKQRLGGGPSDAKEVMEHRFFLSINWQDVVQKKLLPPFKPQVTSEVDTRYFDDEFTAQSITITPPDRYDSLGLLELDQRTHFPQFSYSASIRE

Structure (SMILES) | kinase still bound, per cent of control (ACVR2B (human)) [%] | kinase still bound, per cent of control (CAMKK2 (human)) [%] | kinase still bound, per cent of control (IGF1R (human)) [%] | kinase still bound, per cent of control (CDKL3 (human)) [%] | kinase still bound, per cent of control (ITK (human)) [%] | kinase still bound, per cent of control (PRKAA1 (human)) [%] | kinase still bound, per cent of control (RPS6KA3 KD1 (human)) [%] | kinase still bound, per cent of control (TBK1 (human)) [%] | kinase still bound, per cent of control (EIF2AK2 (human)) [%] | kinase still bound, per cent of control (TGFBR2 (human)) [%] | kinase still bound, per cent of control (PRPF4B (human)) [%] | kinase still bound, per cent of control (TESK1 (human)) [%] | kinase still bound, per cent of control (MYLK (human)) [%] | kinase still bound, per cent of control (IRAK3 (human)) [%] | kinase still bound, per cent of control (PIM2 (human)) [%] | kinase still bound, per cent of control (DMPK (human)) [%] | kinase still bound, per cent of control [1] [%] | kinase still bound, per cent of control (WEE1 (human)) [%] | kinase still bound, per cent of control (MATK (human)) [%] | kinase still bound, per cent of control (PDGFRA (human)) [%] | also measured
COc1cc2ncn(-c3cc(OCc4ccccc4C(F)(F)F)c(C(N)=O)s3)c2cc1OC | 58 | 44 | 100 | 100 | 98 | 68 | 22 | 83 | 78 | 100 | 20 | 73 | 50 | 67 | 100 | 98 | 30 | 83 | 85 | 58 | kinase still bound, per cent of control (BTK (human)): 86%; kinase still bound, per cent of control (PIP5K1C (human)): 10%; kinase still bound, per cent of control (NTRK2 (human)): 59%; kinase still bound, per cent of control (HIPK3 (human)): 77%; kinase still bound, per cent of control (AKT2 (human)): 100%; kinase still bound, per cent of control (AKT3 (human)): 100%; kinase still bound, per cent of control (ZAP70 (human)): 95%; kinase still bound, per cent of control (CDK14 (human)): 90%; kinase still bound, per cent of control (SGK3 (human)): 83%; kinase still bound, per cent of control (ERBB3 (human)): 100%; kinase still bound, per cent of control (PI4KB (human)): 100%; kinase still bound, per cent of control [2]: 97%; kinase still bound, per cent of control (CSK (human)): 97%; kinase still bound, per cent of control (MAPK10 (human)): 89%; kinase still bound, per cent of control (TXK (human)): 72%; kinase still bound, per cent of control (PRKCH (human)): 100%; kinase still bound, per cent of control (CSNK1D (human)): 81%; kinase still bound, per cent of control (RPS6KA1 KD2 (human)): 63%
CNC(=O)c1cc(Oc2ccc(NC(=O)Nc3ccc(Cl)c(C(F)(F)F)c3)cc2)ccn1 | 75 | 72 | 100 | 0.6 | 100 | 42 | 81 | 100 | 73 | 35 | 100 | 62 | 83 | 81 | 91 | 100 | 0 | 100 | 100 | 0 | kinase still bound, per cent of control (PIP5K1C (human)): 87%; kinase still bound, per cent of control (HIPK3 (human)): 0.6%; kinase still bound, per cent of control (AKT2 (human)): 70%; kinase still bound, per cent of control (AKT3 (human)): 100%; kinase still bound, per cent of control (ZAP70 (human)): 100%; kinase still bound, per cent of control (CDK14 (human)): 8.6%; kinase still bound, per cent of control (SGK3 (human)): 82%; kinase still bound, per cent of control (ERBB3 (human)): 100%; kinase still bound, per cent of control [2]: 100%; kinase still bound, per cent of control (ULK2 (human)): 89%; kinase still bound, per cent of control (CSK (human)): 70%; kinase still bound, per cent of control (MAPK10 (human)): 100%; kinase still bound, per cent of control (TXK (human)): 77%; kinase still bound, per cent of control (PRKCH (human)): 100%; kinase still bound, per cent of control (CSNK1D (human)): 100%; kinase still bound, per cent of control (FLT3 (human)): 0.45%; kinase still bound, per cent of control (RPS6KA1 KD2 (human)): 100%
COc1cc(N2CCN(C)CC2)ccc1Nc1ncc2c(n1)N(C)c1ccccc1C(=O)N2C | 100 | 15 | 100 | 100 | 100 | 100 | 100 | 100 | 100 | 100 | 100 | 100 | 13 | 100 | 100 | 100 | 100 | 100 | 100 | 100 | kinase still bound, per cent of control (BTK (human)): 100%; kinase still bound, per cent of control (NTRK2 (human)): 100%; kinase still bound, per cent of control (HIPK3 (human)): 100%; kinase still bound, per cent of control (AKT2 (human)): 100%; kinase still bound, per cent of control (AKT3 (human)): 100%; kinase still bound, per cent of control (ZAP70 (human)): 100%; kinase still bound, per cent of control (CDK14 (human)): 100%; kinase still bound, per cent of control (ERBB3 (human)): 100%; kinase still bound, per cent of control (PI4KB (human)): 100%; kinase still bound, per cent of control [2]: 100%; kinase still bound, per cent of control (ULK2 (human)): 0.5%; kinase still bound, per cent of control (CSK (human)): 100%; kinase still bound, per cent of control (MAPK10 (human)): 100%; kinase still bound, per cent of control (TXK (human)): 100%; kinase still bound, per cent of control (PRKCH (human)): 100%; kinase still bound, per cent of control (CSNK1D (human)): 100%; kinase still bound, per cent of control (FLT3 (human)): 100%; kinase still bound, per cent of control (RPS6KA1 KD2 (human)): 18%
CCN(CC)CCCCNc1ncc2c(n1)N(C)C(=O)N(c1c(Cl)c(OC)cc(OC)c1Cl)C2 | 100 | 100 | 100 | 100 | 100 | 100 | 100 | 100 | 100 | 100 | 100 | 100 | 100 | 100 | 100 | 100 | 2.3 | 100 | 100 | 100 | kinase still bound, per cent of control (BTK (human)): 100%; kinase still bound, per cent of control (NTRK2 (human)): 100%; kinase still bound, per cent of control (HIPK3 (human)): 100%; kinase still bound, per cent of control (AKT2 (human)): 100%; kinase still bound, per cent of control (AKT3 (human)): 100%; kinase still bound, per cent of control (ZAP70 (human)): 100%; kinase still bound, per cent of control (CDK14 (human)): 100%; kinase still bound, per cent of control (ERBB3 (human)): 100%; kinase still bound, per cent of control (PI4KB (human)): 100%; kinase still bound, per cent of control [2]: 100%; kinase still bound, per cent of control (ULK2 (human)): 100%; kinase still bound, per cent of control (CSK (human)): 100%; kinase still bound, per cent of control (MAPK10 (human)): 100%; kinase still bound, per cent of control (TXK (human)): 100%; kinase still bound, per cent of control (PRKCH (human)): 100%; kinase still bound, per cent of control (CSNK1D (human)): 100%; kinase still bound, per cent of control (FLT3 (human)): 100%; kinase still bound, per cent of control (RPS6KA1 KD2 (human)): 100%
